# Patent US20250381256A1 (priority 2022, published 2025)
# Entries after “also recorded” stand apart in the source; their conditions may differ. Square brackets hold non-standard residues; d marks the D form. Ends that are not written are not given here. Cha = N[C@@H](CC1CCCCC1)C(=O)O
# Legend:
# gut microbiome = assay: Microbiome analysis of fecal pellets (16S rRNA sequencing); assay type: in vivo, C57BL/6 mice
# Method: Microbiome Analysis. Fecal pellets were collected from mice and immediately frozen on dry ice prior to storage at −80° C. Samples were submitted to the Duke Center for Genomic and Computational Biology Microbiome Shared Resource core for microbiome analyses. In brief, the Duke Microbiome Core Facility (MCF) extracted DNA using the Qiagen PowerSoilPro DNA Kit (Qiagen, 47014). Bacterial community composition in isolated DNA samples was characterized by amplification of the V4 variable region of the 16S rRNA gene by polymerase chain reaction using the forward primer 515 and reverse primer 806 following the Earth Microbiome Project protocol (http://www.earthmicrobiome.org/). These primers (515F and 806R) carry unique barcodes that allow for multiplexed sequencing. Concentration of the PCR products were accessed using a Qubit dsDNA HS assay kit (ThermoFisher, Q32854) and a Promega GloMax plate reader. Equimolar 16S rRNA PCR products from all samples were pooled prior to sequencing, which was performed by the Duke Sequencing and Genomic Technologies (SGT) shared resource on an Illumina MiSeq instrument configured for 250 base-pair paired-end sequencing runs.
# Sequences were analyzed using QIIME2 software. Demultiplexed forward reads were assigned a cut off between 10-230 bp and reverse reads were assigned a cut off between 10-160 bp. […]
# [1] = test system: CFT073 uropathogenic E. coli; assay: Transurethral infection model with CFT073; conditions: 5×10^7 CFU CFT073, vs control OVA vaccine
# Method: Bacterial Culture and Challenge Model. The uropathogenic E. coli strain CFT073 was purchased from ATCC (700928); this strain was originally isolated from a pyelonephritis patient. CFT073 was cultured at 37° C. with aeration in Luria broth (10 g/L tryptone, 5 g/L yeast extract, 10 g/L sodium chloride) at a 1:100 dilution from a starter culture.
# For the transurethral infection model, water supply was removed from cages for one hour prior to infection to allow for voiding of bladder. Mice were sedated with an i.p. injection of a ketamine/xylazine cocktail and a sterilized plastic needle dabbed in surgical lubricant was used to deliver 5×10^7 CFU of CFT073 into the urethra. Mice were monitored as for the bacteremia model, but with sacrifice at 48 h.
# OVA323-339 = assay: Anti-OVA antibody responses after sublingual nanofiber immunization of mice; assay type: in vivo
# [2] = test system: 1:1:1 mixture of plreA, plutA, and plroN; assay: Urinary antibody ELISA on undiluted urine of immunized mice; conditions: one nanofiber and three nanofiber groups combined
# Method: Animals and Immunizations. […] Murine immunizations were initiated with female C57BL/6 mice (Envigo) aged 9-12 weeks. For sublingual immunizations, mice were deeply anesthetized by a cocktail delivering 100 mg/kg ketamine and 10 mg/kg xylazine. For droplet immunizations, a micropipette with a 20 μL tip was used to apply 8 μL of the immunizing solution below the tongue. For tablet immunizations, the tablet was placed below the tongue of anesthetized mice using tweezers. For droplet and tablet immunizations, the mouse's heads were placed in anteflexion for 20 min following administration to prevent swallowing of the material.
# Measurement of Antibody Responses. Serum was collected via the submandibular vein. For analysis of epitope-specific IgG by ELISA, plates were coated with 20 μg/mL of streptavidin (Millipore Sigma, 189730) overnight at 4° C. Plates were washed with 0.5 g/L Tween-20 in PBS (1×PBST), coated for 1 hour with 20 μg/mL biotinylated plreA, pluta, or plroN, and blocked with Super Block Blocking Buffer (Thermo Scientific, 37515). […] Sera diluted in PBST-BSA or undiluted urine were added to the plate, and antigen-specific IgG was detected by horseradish peroxidase (HRP) conjugated Fcγ fragment specific goat anti-mouse IgG (Jackson Immuno Research, 15-035-071). […]
# I-Ab = molecular target: T1, I-Ab (Mus musculus, UniProt P14434+P14483); conditions: haplotype of C57BL/6 mice; read-out: Reported affinity for I-Ab; cited from earlier work
# T1 sequence (P14434 24-256): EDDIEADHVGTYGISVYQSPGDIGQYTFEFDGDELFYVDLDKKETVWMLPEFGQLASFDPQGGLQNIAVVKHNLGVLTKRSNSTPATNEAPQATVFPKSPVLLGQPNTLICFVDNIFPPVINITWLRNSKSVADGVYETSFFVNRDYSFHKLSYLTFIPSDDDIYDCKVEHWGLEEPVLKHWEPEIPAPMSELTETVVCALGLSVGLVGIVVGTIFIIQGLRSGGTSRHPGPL
# T1 sequence (P14483 28-265): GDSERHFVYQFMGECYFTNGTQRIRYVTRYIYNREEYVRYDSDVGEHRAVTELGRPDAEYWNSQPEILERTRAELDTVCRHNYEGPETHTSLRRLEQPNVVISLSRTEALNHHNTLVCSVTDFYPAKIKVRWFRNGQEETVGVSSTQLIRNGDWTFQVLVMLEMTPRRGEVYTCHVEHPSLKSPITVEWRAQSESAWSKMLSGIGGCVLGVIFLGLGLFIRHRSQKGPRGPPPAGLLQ
# [3] = Nanofiber structure after freeze-drying, tabletization and dissolution (atomic force microscopy); assay type: physicochemical; conditions: various levels of cryoprotectant sugars
# Method: FIG. 16. SIMPL tablets incorporating Coil29-based nanofibers. Top panel: epitope-containing peptide nanofibers were assembled in buffer, then cryoprotectant sugars were added, and tablets were formed by freeze drying. Bottom panel: Tablets were stable enough for handling (left), and Coil29 nanofibers retained their structure after freeze-drying, tabletization, and dissolution (images by atomic force microscopy).
compound,measurement,setting,value
C[C@@H]1O[C@@H]1P(=O)(O)O [Fosfomycin],OTU richness of the microbiome,gut microbiome; week 13 (vaccine) or week 13.5 (after 3 daily doses of 1000 mg/kg Fosfomycin),drastically reduced
same,Shannon diversity index (α-diversity),gut microbiome; week 13 (vaccine) or week 13.5 (antibiotic),highly significantly different from these groups
same,Body temperature after transurethral challenge,[1],maintained significantly higher temperatures than mice given the control vaccine
Nc1ncnc2c1ncn2[C@@H]1O[C@@H]2COP(=O)(O)O[C@H]3[C@@H](O)[C@H](n4cnc5c(N)ncnc54)O[C@@H]3COP(=O)(O)O[C@H]2[C@H]1O [cyclic-di-AMP],Serum IgG titers at reduced adjuvant dose,"OVA323-339; 1 μg c-di-AMP with 8 μL of 5 mM OVA-Coil29, sublingual",equivalent titers to 10 times that dose; also recorded: sufficient to raise strong titers
same,"Epitope-specific IgA levels in the urine, adjuvant comparison",[2]; cyclic-di-AMP vs CTB (p=0.038),significantly higher epitope-specific IgA levels in the urine than CTB
same,"Epitope-specific IgG levels in the urine, adjuvant comparison",[2]; cyclic-di-AMP vs CTB (p=0.38),did not differ significantly
PADRE ([dA]K[Cha]VAAWTLKA[dA]) [aKXVAAWTLKAa],Kd,I-Ab,94 nM
QARILEADAEILRAYARILEAHAEILRAQ (Ac-QARILEADAEILRAYARILEAHAEILRAQ-NH2) [Coil29],Sublingual immunogenicity after tabletization,"OVA323-339; SIMPL tablets, range of peptide and cryoprotectant sugar concentrations, 10 μg c-di-AMP",sublingually immunogenic
same,Sublingual immunogenicity,"OVA323-339; mouse models, Coil29 nanofibers, liquid formulations",did not depend on PASylation for immunogenicity
same,Nanofibrillar structure in tablets,[3],retained their nanofibrillar structure
QLVFNSISARALKAY [VAC],Kd,I-Ab,13.5 nM
